Measured values from patent US20120309796A1, “BENZOCYCLOHEPTENE ACETIC ACIDS” (priority 2011, published 2012).

Molecular target: T1, human CRTH2 (Homo sapiens, UniProt Q9Y5Y4)
T1 sequence (Q9Y5Y4 1-395): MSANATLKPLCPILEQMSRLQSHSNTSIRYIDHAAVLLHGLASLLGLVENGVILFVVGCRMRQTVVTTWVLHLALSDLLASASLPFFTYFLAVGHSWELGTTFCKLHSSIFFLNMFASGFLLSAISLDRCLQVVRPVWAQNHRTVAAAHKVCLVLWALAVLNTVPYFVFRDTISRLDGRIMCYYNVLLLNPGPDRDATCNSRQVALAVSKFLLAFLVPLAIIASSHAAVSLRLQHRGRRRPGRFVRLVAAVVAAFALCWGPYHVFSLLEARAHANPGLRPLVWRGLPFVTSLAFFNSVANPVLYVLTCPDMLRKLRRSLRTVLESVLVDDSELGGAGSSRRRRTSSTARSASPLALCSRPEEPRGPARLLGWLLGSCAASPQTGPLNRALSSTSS
Assay: Human CRTH2 Receptor Binding Assay (whole cell, [3H]ramatroban competition)
Design: two mammalian expression vectors that harbored human CRTH2 and G-alpha16 cDNAs; expressed in transfected cells
Details: CHO-K1 cells expressing human CRTH2 and G-alpha16; 20 nM [3H]ramatroban; 1 hour, room temperature
Description: A whole cell receptor binding assay using [^3H]ramatroban as the competing radioactive ligand was employed to evaluate the compound binding activity to human CRTH2. The radioactive ligand [^3H]ramatroban was synthesized according to Sugimoto et. al. (Eur. J. Pharmacol. 2005, 524, 30-37) to a specific activity of 42 Ci/mmol
A cell line stably expressing human CRTH2 was established by transfecting CHO-K1 cells with two mammalian expression vectors that harbored human CRTH2 and G-alpha16 cDNAs, respectively, using FuGene® 6 transfection reagent (from Roche). Stable clones expressing CRTH2 were selected by staining each clone with BM16 (BD Pharmingen™ from BD Biosciences, a division of Becton, Dickinson and Company), which is a rat monoclonal antibody to human CRTH2. The cells were maintained as monolayer cultures in Ham's F-12 medium containing 10% fetal bovine serum, 100 units/mL penicillin, 100 μg/mL streptomycin, 2 mM glutamine, 0.5 mg/mL G418 (geneticin) for CRTH2, and 0.2 mg/mL hygromycin-B (for G-alpha 16). For whole cell receptor binding assay, the monolayer cells were rinsed once with PBS (phosphate buffered saline), dissociated using ethylenediaminetetraacetate (Versene™ EDTA from Lonza Inc.), and suspended in PBS containing 10 mM MgCl2 and 0.06% BSA (bovine serum albumin) at 1.5×10^6 cells/mL.
The binding reactions (0.2 mL) were performed in 96-well plates at room temperature in PBS containing 1.5×10^5 cells, 10 mM MgCl2, 0.06% BSA, 20 nM [^3H]ramatroban, and test compound at various concentrations. After 1 hour of binding reactions, the cells were harvested on GF™/B filter microplates (microtiter plates with embedded glass fiber from PerkinElmer, Inc.) and washed 5 times with PBS using a Filtermate™ Harvester (a cell harvester that harvests and washes cells from microplates from PerkinElmer, Inc.). The radioactivities bound to the cells were determined using a microplate scintillation counter (TopCount® NXT, from PerkinElmer, Inc.) after adding 50 μL of Microscint™ 20 scintillation fluid (from PerkinElmer, Inc.) to each well of the filter plates. The radioactivity from non-specific binding was determined by replacing compound with 10 μM of 15(R)-15-methyl PGD2 (from Cayman Chemical Company) in the reaction mixtures. The radioactivity bound to the cells in the absence of compound (total binding) was determined by replacing compound with 0.25% of DMSO (dimethyl sulfoxide) in the reaction mixture. Specific binding data were obtained by subtracting the radioactivity of non-specific binding from each binding data.
The IC50 value is defined as the concentration of the tested compound that is required for 50% inhibition of total specific binding. In order to calculate the IC50 value, the percent inhibition data were determined for 7 concentrations for each compound. The percent inhibition for a compound at each concentration was calculated according to the following formula, [1-(specific binding in the presence of compound)/(total specific binding)]×100. The IC50 value was then obtained by fitting the percent inhibition data to a sigmoidal dose-response (4 parameter logistic) model in the XLfit® software Excel add-in program [from ID Business Solutions Ltd., model 205, where F(x)=(A+(B−A)/(1+((C/x)̂D)))].

## O=C(O)COc1cccc2c1CCCCC2NS(=O)(=O)c1cc(C(F)(F)F)cc(C(F)(F)F)c1 (single isomer, unassigned) [Example 45, [5-(3,5-Bis-trifluoromethyl-benzenesulfonylamino)-6,7,8,9-tetrahydro-5H-benzocyclohepten-1-yloxy]-acetic acid]
  IC50: 1490 nM

## O=C(O)COc1cccc2c1CCCCC2NS(=O)(=O)c1cccc(-c2ccccc2)c1 (centres unmarked) [Example 3, [5-(Biphenyl-3-sulfonylamino)-6,7,8,9-tetrahydro-5H-benzocyclohepten-1-yloxy]-acetic acid]
  IC50: 2610 nM

## O=C(O)COc1cccc2c1CCCCC2NS(=O)(=O)c1cc(F)cc(C(F)(F)F)c1 (centres unmarked) [Example 6, [5-(3-Fluoro-5-trifluoromethyl-benzenesulfonylamino)-6,7,8,9-tetrahydro-5H-benzocyclohepten-1-yloxy]-acetic acid]
  IC50: 171 nM

## CN(C1CCCCc2c(OCC(=O)O)cccc21)S(=O)(=O)c1cc(F)cc(C(F)(F)F)c1 (centres unmarked) [Example 7, {5-[(3-Fluoro-5-trifluoromethyl-benzenesulfonyl)-methyl-amino]-6,7,8,9-tetrahydro-5H-benzocyclohepten-1-yloxy}-acetic acid]
  IC50: 64.6 nM

## CS(=O)(=O)c1cc(S(C)(=O)=O)cc(S(=O)(=O)NC2CCCCc3c(OCC(=O)O)cccc32)c1 (centres unmarked) [Example 10, [5-(3,5-Bis-methanesulfonyl-benzenesulfonylamino)-6,7,8,9-tetrahydro-5H-benzocyclohepten-1-yloxy]-acetic acid]
  IC50: 50.3 nM

## CN(C1CCCCc2c(OCC(=O)O)cccc21)S(=O)(=O)c1cc(S(C)(=O)=O)cc(S(C)(=O)=O)c1 (centres unmarked) [Example 11, {5-[(3,5-Bis-methanesulfonyl-benzenesulfonyl)-methyl-amino]-6,7,8,9-tetrahydro-5H-benzocyclohepten-1-yloxy}-acetic acid]
  IC50: 33.4 nM

## CN(C1CCCCc2c(OCC(=O)O)cccc21)S(=O)(=O)c1ccc(-c2ccccc2)cc1 (centres unmarked) [Example 12, {5-[(Biphenyl-4-sulfonyl)-methyl-amino]-6,7,8,9-tetrahydro-5H-benzocyclohepten-1-yloxy}-acetic acid]
  IC50: 750 nM

## COc1cc(C(F)(F)F)cc(S(=O)(=O)NC2CCCCc3c(OCC(=O)O)cccc32)c1 (centres unmarked) [Example 13, [5-(3-Methoxy-5-trifluoromethyl-benzenesulfonylamino)-6,7,8,9-tetrahydro-5H-benzocyclohepten-1-yloxy]-acetic acid]
  IC50: 158 nM

## COc1cc(C(F)(F)F)cc(S(=O)(=O)N(C)C2CCCCc3c(OCC(=O)O)cccc32)c1 (centres unmarked) [Example 14, {5-[(3-Methoxy-5-trifluoromethyl-benzenesulfonyl)-methyl-amino]-6,7,8,9-tetrahydro-5H-benzocyclohepten-1-yloxy}-acetic acid]
  IC50: 106 nM

## CC(=O)c1cc(C(F)(F)F)cc(S(=O)(=O)NC2CCCCc3c(OCC(=O)O)cccc32)c1 (centres unmarked) [Example 15, [5-(3-Acetyl-5-trifluoromethyl-benzenesulfonylamino)-6,7,8,9-tetrahydro-5H-benzocyclohepten-1-yloxy]-acetic acid]
  IC50: 3.3 nM

## CC(=O)c1cc(C(F)(F)F)cc(S(=O)(=O)N(C)C2CCCCc3c(OCC(=O)O)cccc32)c1 (centres unmarked) [Example 16, {5-[(3-Acetyl-5-trifluoromethyl-benzenesulfonyl)-methyl-amino]-6,7,8,9-tetrahydro-5H-benzocyclohepten-1-yloxy}-acetic acid]
  IC50: 5.9 nM

## CS(=O)(=O)c1cc(C(F)(F)F)cc(S(=O)(=O)NC2CCCCc3c(OCC(=O)O)cccc32)c1 (centres unmarked) [Example 17, [5-(3-Methanesulfonyl-5-trifluoromethyl-benzenesulfonylamino)-6,7,8,9-tetrahydro-5H-benzocyclohepten-1-yloxy]-acetic acid]
  IC50: 11.4 nM

## CN(C1CCCCc2c(OCC(=O)O)cccc21)S(=O)(=O)c1cc(C(F)(F)F)cc(S(C)(=O)=O)c1 (centres unmarked) [Example 18, {5-[(3-Methanesulfonyl-5-trifluoromethyl-benzenesulfonyl)-methyl-amino]-6,7,8,9-tetrahydro-5H-benzocyclohepten-1-yloxy}-acetic acid]
  IC50: 11.4 nM

## CC(C)c1cccc(-c2ccc(S(=O)(=O)NC3CCCCc4c(OCC(=O)O)cccc43)cc2)c1 (centres unmarked) [Example 19, [5-(3′-Isopropyl-biphenyl-4-sulfonylamino)-6,7,8,9-tetrahydro-5H-benzocyclohepten-1-yloxy]-acetic acid]
  IC50: 13 nM

## CC(C)c1cccc(-c2ccc(S(=O)(=O)N(C)C3CCCCc4c(OCC(=O)O)cccc43)cc2)c1 (centres unmarked) [Example 20, {5-[(3′-Isopropyl-biphenyl-4-sulfonyl)-methyl-amino]-6,7,8,9-tetrahydro-5H-benzocyclohepten-1-yloxy}-acetic acid]
  IC50: 106 nM

## Cc1cc(-c2ccc(S(=O)(=O)NC3CCCCc4c(OCC(=O)O)cccc43)cc2)cc(C(C)(C)C)c1 (centres unmarked) [Example 21, [5-(3′-tert-Butyl-5′-methyl-biphenyl-4-sulfonylamino)-6,7,8,9-tetrahydro-5H-benzocyclohepten-1-yloxy]-acetic acid]
  IC50: 34.7 nM

## Cc1cc(-c2ccc(S(=O)(=O)N(C)C3CCCCc4c(OCC(=O)O)cccc43)cc2)cc(C(C)(C)C)c1 (centres unmarked) [Example 22, {5-[(3′-tert-Butyl-5′-methyl-biphenyl-4-sulfonyl)-methyl-amino]-6,7,8,9-tetrahydro-5H-benzocyclohepten-1-yloxy}-acetic acid]
  IC50: 189 nM

## CN(C1CCCCc2c(OCC(=O)O)cccc21)S(=O)(=O)c1ccc(-c2ccc(O)cc2)cc1 (centres unmarked) [Example 24, {5-[(4′-Hydroxy-biphenyl-4-sulfonyl)-methyl-amino]-6,7,8,9-tetrahydro-5H-benzocyclohepten-1-yloxy}-acetic acid]
  IC50: 987 nM

## Cc1cncc(-c2ccc(S(=O)(=O)N(C)C3CCCCc4c(OCC(=O)O)cccc43)cc2)c1 (centres unmarked) [Example 26, (5-{Methyl-[4-(5-methyl-pyridin-3-yl)-benzenesulfonyl]-amino}-6,7,8,9-tetrahydro-5H-benzocyclohepten-1-yloxy)-acetic acid]
  IC50: 1500 nM

## CSc1cccc(-c2ccc(S(=O)(=O)NC3CCCCc4c(OCC(=O)O)cccc43)cc2)c1 (centres unmarked) [Example 27, [5-(3′-Methylsulfanyl-biphenyl-4-sulfonylamino)-6,7,8,9-tetrahydro-5H-benzocyclohepten-1-yloxy]-acetic acid]
  IC50: 24.3 nM

## CSc1cccc(-c2ccc(S(=O)(=O)N(C)C3CCCCc4c(OCC(=O)O)cccc43)cc2)c1 (centres unmarked) [Example 28, {5-[Methyl-(3′-methylsulfanyl-biphenyl-4-sulfonyl)-amino]-6,7,8,9-tetrahydro-5H-benzocyclohepten-1-yloxy}-acetic acid]
  IC50: 603 nM

## CN(C1CCCCc2c(OCC(=O)O)cccc21)S(=O)(=O)c1ccc(-c2cccc(S(C)(=O)=O)c2)cc1 (centres unmarked) [Example 30, {5-[(3′-Methanesulfonyl-biphenyl-4-sulfonyl)-methyl-amino]-6,7,8,9-tetrahydro-5H-benzocyclohepten-1-yloxy}-acetic acid]
  IC50: 189 nM

## CC(C)c1cccc(-c2ccc(S(=O)(=O)N(C)C3CCCCc4c(OCC(=O)O)cccc43)nc2)c1 (centres unmarked) [Example 32, (5-{[5-(3-Isopropyl-phenyl)-pyridine-2-sulfonyl]-methyl-amino}-6,7,8,9-tetrahydro-5H-benzocyclohepten-1-yloxy)-acetic acid]
  IC50: 123 nM
